According to PubChem BioAssay (NCI):
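96-well plates; 48 h exposure; 5 concentrations. Endpoints by linear interpolation between flanking doses. Not reached: highest tested concentration assigned. TGI is the concentration that stops growth completely.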

How the values were obtained:
Test in all cases: growth of human tumour cells (NCI), 48 h
NCI-H226 lung = test system: NCI-H226 lung
K-562 leukemia = test system: K-562 leukemia
HOP-18 NSCLC = test system: HOP-18 NSCLC
OVCAR-8 ovarian = test system: OVCAR-8 ovarian
SF-539 CNS = test system: SF-539 CNS
RPMI-8226 leukemia = test system: RPMI-8226 leukemia
CAKI-1 renal = test system: CAKI-1 renal
KM20L2 colon = test system: KM20L2 colon
MOLT-4 leukemia = test system: MOLT-4 leukemia
NCI-H522 lung = test system: NCI-H522 lung
EKVX NSCLC = test system: EKVX NSCLC
OVCAR-4 ovarian = test system: OVCAR-4 ovarian
OVCAR-3 ovarian = test system: OVCAR-3 ovarian
HCT-116 colon = test system: HCT-116 colon
UACC-257 melanoma = test system: UACC-257 melanoma
DLD-1 colon = test system: DLD-1 colon
HL-60(TB) leukemia = test system: HL-60(TB) leukemia
DMS 273 small cell lung = test system: DMS 273 small cell lung
HOP-92 NSCLC = test system: HOP-92 NSCLC
U251 CNS = test system: U251 CNS
ACHN renal = test system: ACHN renal
SNB-19 CNS = test system: SNB-19 CNS
IGROV1 ovarian = test system: IGROV1 ovarian
KM12 colon = test system: KM12 colon
HOP-62 NSCLC = test system: HOP-62 NSCLC
UO-31 renal = test system: UO-31 renal
SK-OV-3 ovarian = test system: SK-OV-3 ovarian
SW-620 colon = test system: SW-620 colon
UACC-62 melanoma = test system: UACC-62 melanoma
COLO 205 colon = test system: COLO 205 colon
NCI-H460 lung = test system: NCI-H460 lung
CCRF-CEM leukemia = test system: CCRF-CEM leukemia
LOX IMVI melanoma = test system: LOX IMVI melanoma
TK-10 renal = test system: TK-10 renal
HCC-2998 colon = test system: HCC-2998 colon
SK-MEL-2 melanoma = test system: SK-MEL-2 melanoma
OVCAR-5 ovarian = test system: OVCAR-5 ovarian
HT29 colon = test system: HT29 colon
SK-MEL-5 melanoma = test system: SK-MEL-5 melanoma
SF-295 CNS = test system: SF-295 CNS
MALME-3M melanoma = test system: MALME-3M melanoma
SNB-75 CNS = test system: SNB-75 CNS
LXFL 529 NSCLC = test system: LXFL 529 NSCLC
SN12C renal = test system: SN12C renal
NCI-H23 lung = test system: NCI-H23 lung
M19-MEL melanoma = test system: M19-MEL melanoma
HCT-15 colon = test system: HCT-15 colon
M14 melanoma = test system: M14 melanoma
786-0 renal = test system: 786-0 renal
SK-MEL-28 melanoma = test system: SK-MEL-28 melanoma
SR leukemia = test system: SR leukemia
A498 renal = test system: A498 renal
A549 NSCLC = test system: A549 NSCLC
SF-268 CNS = test system: SF-268 CNS
SNB-78 CNS = test system: SNB-78 CNS
DMS 114 small cell lung = test system: DMS 114 small cell lung
RXF 393 renal = test system: RXF 393 renal

SMILES: CCCCCCC1NN(C(C)=O)C(CCCCCC)NN1C(C)=O (configuration not stated)
- TGI (NCI-H226 lung): > 100 µM
- TGI (K-562 leukemia): > 100 µM
- TGI (HOP-18 NSCLC): > 100 µM
- TGI (OVCAR-8 ovarian): > 100 µM
- TGI (SF-539 CNS): > 100 µM
- TGI (RPMI-8226 leukemia): 67.4 µM
- TGI (CAKI-1 renal): > 100 µM
- TGI (KM20L2 colon): > 100 µM
- TGI (MOLT-4 leukemia): > 100 µM
- TGI (NCI-H522 lung): > 100 µM
- TGI (EKVX NSCLC): > 100 µM
- TGI (OVCAR-4 ovarian): > 100 µM
- TGI (OVCAR-3 ovarian): > 100 µM
- TGI (HCT-116 colon): > 100 µM
- TGI (UACC-257 melanoma): > 100 µM
- TGI (DLD-1 colon): > 100 µM
- TGI (HL-60(TB) leukemia): > 100 µM
- TGI (DMS 273 small cell lung): > 100 µM
- TGI (HOP-92 NSCLC): > 100 µM
- TGI (U251 CNS): > 100 µM
- TGI (ACHN renal): > 100 µM
- TGI (SNB-19 CNS): > 100 µM
- TGI (IGROV1 ovarian): > 100 µM
- TGI (KM12 colon): > 100 µM
- TGI (HOP-62 NSCLC): > 100 µM
- TGI (UO-31 renal): > 100 µM
- TGI (SK-OV-3 ovarian): > 100 µM
- TGI (SW-620 colon): 46.1 µM
- TGI (UACC-62 melanoma): > 100 µM
- TGI (COLO 205 colon): > 100 µM
- TGI (NCI-H460 lung): 33.7 µM
- TGI (CCRF-CEM leukemia): > 100 µM
- TGI (LOX IMVI melanoma): 46.7 µM
- TGI (TK-10 renal): > 100 µM
- TGI (HCC-2998 colon): > 100 µM
- TGI (SK-MEL-2 melanoma): > 100 µM
- TGI (OVCAR-5 ovarian): > 100 µM
- TGI (HT29 colon): > 100 µM
- TGI (SK-MEL-5 melanoma): > 100 µM
- TGI (SF-295 CNS): > 100 µM
- TGI (MALME-3M melanoma): > 100 µM
- TGI (SNB-75 CNS): > 100 µM
- TGI (LXFL 529 NSCLC): > 100 µM
- TGI (SN12C renal): > 100 µM
- TGI (NCI-H23 lung): > 100 µM
- TGI (M19-MEL melanoma): > 100 µM
- TGI (HCT-15 colon): > 100 µM
- TGI (M14 melanoma): > 100 µM
- TGI (786-0 renal): > 100 µM

SMILES: COc1cccc([C@@]2(O)c3c(ccc(O)c3OC)[C@H]2OC)c1OC
- TGI (NCI-H226 lung): > 100 µM
- TGI (K-562 leukemia): > 100 µM
- TGI (OVCAR-8 ovarian): > 100 µM
- TGI (RPMI-8226 leukemia): > 100 µM
- TGI (CAKI-1 renal): 78.4 µM
- TGI (KM20L2 colon): > 100 µM
- TGI (MOLT-4 leukemia): > 100 µM
- TGI (NCI-H522 lung): 52.2 µM
- TGI (EKVX NSCLC): > 100 µM
- TGI (SK-MEL-28 melanoma): > 100 µM
- TGI (SR leukemia): > 100 µM
- TGI (OVCAR-4 ovarian): > 100 µM
- TGI (OVCAR-3 ovarian): > 100 µM
- TGI (UACC-257 melanoma): > 100 µM
- TGI (DLD-1 colon): > 100 µM
- TGI (HL-60(TB) leukemia): 57.3 µM
- TGI (HOP-92 NSCLC): > 100 µM
- TGI (U251 CNS): > 100 µM
- TGI (ACHN renal): > 100 µM
- TGI (SNB-19 CNS): > 100 µM
- TGI (IGROV1 ovarian): > 100 µM
- TGI (KM12 colon): > 100 µM
- TGI (HOP-62 NSCLC): > 100 µM
- TGI (UO-31 renal): > 100 µM
- TGI (SK-OV-3 ovarian): > 100 µM
- TGI (SW-620 colon): > 100 µM
- TGI (NCI-H460 lung): > 100 µM
- TGI (CCRF-CEM leukemia): > 100 µM
- TGI (TK-10 renal): 93.6 µM
- TGI (A498 renal): > 100 µM
- TGI (HCC-2998 colon): > 100 µM
- TGI (SK-MEL-2 melanoma): > 100 µM
- TGI (OVCAR-5 ovarian): > 100 µM
- TGI (HT29 colon): > 100 µM
- TGI (SK-MEL-5 melanoma): > 100 µM
- TGI (SF-295 CNS): > 100 µM
- TGI (A549 NSCLC): > 100 µM
- TGI (MALME-3M melanoma): > 100 µM
- TGI (SF-268 CNS): > 100 µM
- TGI (SNB-75 CNS): > 100 µM
- TGI (LXFL 529 NSCLC): 62.1 µM
- TGI (SN12C renal): > 100 µM
- TGI (NCI-H23 lung): > 100 µM
- TGI (M14 melanoma): > 100 µM
- TGI (SNB-78 CNS): > 100 µM
- TGI (786-0 renal): 30.3 µM

SMILES: CCCCC#COS(=O)(=O)c1ccc(C)cc1
- TGI (NCI-H226 lung): 84.9 µM
- TGI (K-562 leukemia): > 100 µM
- TGI (OVCAR-8 ovarian): > 100 µM
- TGI (SF-539 CNS): > 100 µM
- TGI (RPMI-8226 leukemia): > 100 µM
- TGI (CAKI-1 renal): > 100 µM
- TGI (KM20L2 colon): > 100 µM
- TGI (MOLT-4 leukemia): > 100 µM
- TGI (NCI-H522 lung): > 100 µM
- TGI (EKVX NSCLC): > 100 µM
- TGI (SR leukemia): > 100 µM
- TGI (OVCAR-4 ovarian): > 100 µM
- TGI (OVCAR-3 ovarian): > 100 µM
- TGI (HCT-116 colon): > 100 µM
- TGI (UACC-257 melanoma): > 100 µM
- TGI (DLD-1 colon): > 100 µM
- TGI (HL-60(TB) leukemia): > 100 µM
- TGI (DMS 114 small cell lung): > 100 µM
- TGI (U251 CNS): > 100 µM
- TGI (ACHN renal): > 100 µM
- TGI (SNB-19 CNS): > 100 µM
- TGI (IGROV1 ovarian): > 100 µM
- TGI (KM12 colon): > 100 µM
- TGI (HOP-62 NSCLC): > 100 µM
- TGI (UO-31 renal): > 100 µM
- TGI (SK-OV-3 ovarian): > 100 µM
- TGI (SW-620 colon): > 100 µM
- TGI (UACC-62 melanoma): > 100 µM
- TGI (COLO 205 colon): > 100 µM
- TGI (NCI-H460 lung): > 100 µM
- TGI (CCRF-CEM leukemia): > 100 µM
- TGI (LOX IMVI melanoma): > 100 µM
- TGI (A498 renal): > 100 µM
- TGI (HCC-2998 colon): > 100 µM
- TGI (SK-MEL-2 melanoma): > 100 µM
- TGI (OVCAR-5 ovarian): > 100 µM
- TGI (HT29 colon): > 100 µM
- TGI (SK-MEL-5 melanoma): > 100 µM
- TGI (SF-295 CNS): > 100 µM
- TGI (A549 NSCLC): > 100 µM
- TGI (MALME-3M melanoma): > 100 µM
- TGI (SF-268 CNS): > 100 µM
- TGI (LXFL 529 NSCLC): > 100 µM
- TGI (SN12C renal): > 100 µM
- TGI (NCI-H23 lung): > 100 µM
- TGI (M19-MEL melanoma): > 100 µM
- TGI (HCT-15 colon): > 100 µM
- TGI (M14 melanoma): > 100 µM
- TGI (SNB-78 CNS): > 100 µM
- TGI (786-0 renal): > 100 µM

SMILES: Cc1ccc(O)c(N=Nc2ccc(S(=O)(=O)O)cc2)n1
- TGI (K-562 leukemia): > 100 µM
- TGI (HOP-18 NSCLC): > 100 µM
- TGI (OVCAR-8 ovarian): > 100 µM
- TGI (SF-539 CNS): > 100 µM
- TGI (RPMI-8226 leukemia): > 100 µM
- TGI (CAKI-1 renal): > 100 µM
- TGI (KM20L2 colon): > 100 µM
- TGI (MOLT-4 leukemia): > 100 µM
- TGI (NCI-H522 lung): > 100 µM
- TGI (EKVX NSCLC): 47.9 µM
- TGI (SK-MEL-28 melanoma): > 100 µM
- TGI (HCT-116 colon): > 100 µM
- TGI (DLD-1 colon): > 100 µM
- TGI (HL-60(TB) leukemia): > 100 µM
- TGI (DMS 273 small cell lung): > 100 µM
- TGI (DMS 114 small cell lung): > 100 µM
- TGI (HOP-92 NSCLC): > 100 µM
- TGI (U251 CNS): > 100 µM
- TGI (ACHN renal): > 100 µM
- TGI (IGROV1 ovarian): > 100 µM
- TGI (UO-31 renal): > 100 µM
- TGI (SK-OV-3 ovarian): > 100 µM
- TGI (SW-620 colon): > 100 µM
- TGI (UACC-62 melanoma): > 100 µM
- TGI (COLO 205 colon): > 100 µM
- TGI (NCI-H460 lung): > 100 µM
- TGI (RXF 393 renal): > 100 µM
- TGI (CCRF-CEM leukemia): > 100 µM
- TGI (LOX IMVI melanoma): > 100 µM
- TGI (TK-10 renal): > 100 µM
- TGI (A498 renal): > 100 µM
- TGI (SK-MEL-5 melanoma): > 100 µM
- TGI (SF-295 CNS): > 100 µM
- TGI (A549 NSCLC): > 100 µM
- TGI (SF-268 CNS): > 100 µM
- TGI (LXFL 529 NSCLC): > 100 µM
- TGI (SN12C renal): > 100 µM
- TGI (NCI-H23 lung): > 100 µM
- TGI (M19-MEL melanoma): > 100 µM
- TGI (HCT-15 colon): > 100 µM
- TGI (M14 melanoma): > 100 µM
- TGI (786-0 renal): > 100 µM
